Test results: patent US9695155B2, “Herbicidal substituted pyrimidinyloxy benzene compounds” (E. I. DU PONT DE NEMOURS AND COMPANY, priority 2013, dated 2017)

How the values were obtained:
kochia = assay: Test D postemergence; type: in vivo, Kochia scoparia
Text: (§1) Seeds of plant species selected from bluegrass (annual bluegrass, Poa annua), blackgrass (Alopecurus myosuroides), canarygrass (littleseed canarygrass, Phalaris minor), chickweed (common chickweed, Stellaria media), galium (catchweed bedstraw, Galium aparine), bromegrass, downy (downy bromegrass, Bromus tectorum), field poppy (Papaver rhoeas), field violet (Viola arvensis), green foxtail (Setaria viridis), deadnettle (henbit deadnettle, Lamium amplexicaule), Italian ryegrass (Lolium multiflorum), kochia (Kochia scoparia), lambsquarters (Chenopodium album), oilseed rape (Brassica napus), pigweed (Amaranthus retroflexus), chamomile (scentless chamomile, Matricaria inodora), Russian thistle (Salsola kali), speedwell (bird's-eye speedwell, Veronica persica), spring barley (Hordeum vulgare), spring wheat (Triticum aestivum), wild buckwheat (Polygonum convolvulus), wild mustard (Sinapis arvensis), wild oat (Avena fatua), wild radish (Raphanus raphanistrum), windgrass (Apera spica-venti), winter barley (Hordeum vulgare), and winter wheat (Triticum aestivum) were planted into a silt loam soil and treated preemergence with test chemicals formulated in a non-phytotoxic solvent mixture which included a surfactant.
(§2) At the same time, these species were planted in pots containing Redi-Earth® planting medium (Scotts Company, 14111 Scottslawn Road, Marysville, Ohio 43041) comprising spaghnum peat moss, vermiculite, wetting agent and starter nutrients and treated with postemergence applications of the test chemicals formulated in the same manner. Plants ranged in height from 2 to 18 cm (1- to 4-leaf stage). Treated plants and controls were maintained in a controlled growth environment for 7 to 21 days after which time all species were compared to controls and visually evaluated. Plant response ratings, summarized in Table D, are based on a scale of 0 to 100 where 0 is no effect and 100 is complete control. A dash (-) response means no test result.

field poppy = assay: Test D postemergence; type: in vivo, Papaver rhoeas
Text: as §1, §2

spring barley = assay: Test D preemergence; type: in vivo, Hordeum vulgare
Text: as §1, §2

winter barley = assay: Test D preemergence; type: in vivo, Hordeum vulgare
Text: as §1, §2

chamomile = assay: Test D postemergence; type: in vivo, Matricaria inodora
Text: as §1, §2

wild buckwheat = assay: Test D preemergence; type: in vivo, Polygonum convolvulus
Text: as §1, §2

wild mustard = assay: Test D preemergence; type: in vivo, Sinapis arvensis
Text: as §1, §2

[1] = Bassia scoparia, post-emergence, 31 g ai/ha, scale 0 to 100 (0 no effect, 100 complete control), read-out: Plant response rating, Kochia
[2] = Bassia scoparia, post-emergence, 62 g ai/ha, scale 0 to 100 (0 no effect, 100 complete control), read-out: Plant response rating, Kochia
[3] = Bassia scoparia, post-emergence, 125 g ai/ha, scale 0 to 100 (0 no effect, 100 complete control), read-out: Plant response rating, Kochia
[4] = Papaver rhoeas, post-emergence, 31 g ai/ha, scale 0 to 100 (0 no effect, 100 complete control), read-out: Plant response rating, Field Poppy
[5] = Papaver rhoeas, post-emergence, 62 g ai/ha, scale 0 to 100 (0 no effect, 100 complete control), read-out: Plant response rating, Field Poppy
[6] = Papaver rhoeas, post-emergence, 125 g ai/ha, scale 0 to 100 (0 no effect, 100 complete control), read-out: Plant response rating, Field Poppy
[7] = Hordeum vulgare, pre-emergence, 31 g ai/ha, scale 0-100, read-out: Plant response rating, Barley, Spring
[8] = Hordeum vulgare, pre-emergence, 62 g ai/ha, scale 0-100, read-out: Plant response rating, Barley, Spring
[9] = Hordeum vulgare, pre-emergence, 125 g ai/ha, scale 0-100, read-out: Plant response rating, Barley, Spring
[10] = Hordeum vulgare, pre-emergence, 31 g ai/ha, scale 0-100, read-out: Plant response rating, Barley, Winter
[11] = Hordeum vulgare, pre-emergence, 62 g ai/ha, scale 0-100, read-out: Plant response rating, Barley, Winter
[12] = Hordeum vulgare, pre-emergence, 125 g ai/ha, scale 0-100, read-out: Plant response rating, Barley, Winter
[13] = Tripleurospermum inodorum, post-emergence, 31 g ai/ha, scale 0 to 100 (0 no effect, 100 complete control), read-out: Plant response rating, Chamomile
[14] = Tripleurospermum inodorum, post-emergence, 62 g ai/ha, scale 0 to 100 (0 no effect, 100 complete control), read-out: Plant response rating, Chamomile
[15] = Tripleurospermum inodorum, post-emergence, 125 g ai/ha, scale 0 to 100 (0 no effect, 100 complete control), read-out: Plant response rating, Chamomile
[16] = Fallopia convolvulus, pre-emergence, 31 g ai/ha, scale 0-100, read-out: Plant response rating, Buckwheat, Wild
[17] = Fallopia convolvulus, pre-emergence, 62 g ai/ha, scale 0-100, read-out: Plant response rating, Buckwheat, Wild
[18] = Fallopia convolvulus, pre-emergence, 125 g ai/ha, scale 0-100, read-out: Plant response rating, Buckwheat, Wild
[19] = Brassica, pre-emergence, 31 g ai/ha, scale 0-100, read-out: Plant response rating, Mustard, Wild
[20] = Brassica, pre-emergence, 62 g ai/ha, scale 0-100, read-out: Plant response rating, Mustard, Wild
[21] = Brassica, pre-emergence, 125 g ai/ha, scale 0-100, read-out: Plant response rating, Mustard, Wild
[22] = 31 g ai/ha, scale 0 to 100 (0 no effect, 100 complete control)
[23] = 62 g ai/ha, scale 0 to 100 (0 no effect, 100 complete control)
[24] = 125 g ai/ha, scale 0 to 100 (0 no effect, 100 complete control)
[25] = 16 g ai/ha, scale 0 (no effect) to 100 (complete control)

## N#Cc1cccc(Oc2ncc(Cl)cn2)c1-n1cc(Br)cn1 [Compound 52, 2-(4-bromo-1H-pyrazol-1-yl)-3-[(5-chloro-2-pyrimidinyl)oxy]benzonitrile]
kochia; [1]
  pest or weed control at 31 g/ha: 80%
kochia; [2]
  pest or weed control at 62 g/ha: 90%
kochia; [3]
  pest or weed control at 125 g/ha: 90%
kochia; Bassia scoparia, post-emergence, 250 g ai/ha, scale 0 to 100 (0 no effect, 100 complete control), read-out: Plant response rating, Kochia
  pest or weed control at 250 g/ha: 90%
Field poppy; [4]
  pest or weed control at 31 g/ha: 60%
Field poppy; [5]
  pest or weed control at 62 g/ha: 75%
Field poppy; [6]
  pest or weed control at 125 g/ha: 80%
Field poppy; Papaver rhoeas, post-emergence, 250 g ai/ha, scale 0 to 100 (0 no effect, 100 complete control), read-out: Plant response rating, Field Poppy
  pest or weed control at 250 g/ha: 100%
Spring barley; [7]
  plant injury at 31 g/ha: 5%
Spring barley; [8]
  plant injury at 62 g/ha: 10%
Spring barley; [9]
  plant injury at 125 g/ha: 10%
Spring barley; Hordeum vulgare, pre-emergence, 250 g ai/ha, scale 0-100, read-out: Plant response rating, Barley, Spring
  plant injury at 250 g/ha: 50%
Winter barley; [10]
  plant injury at 31 g/ha: 0%
Winter barley; [11]
  plant injury at 62 g/ha: 0%
Winter barley; [12]
  plant injury at 125 g/ha: 5%
Winter barley; Hordeum vulgare, pre-emergence, 250 g ai/ha, scale 0-100, read-out: Plant response rating, Barley, Winter
  plant injury at 250 g/ha: 35%
chamomile; [13]
  pest or weed control at 31 g/ha: 10%
chamomile; [14]
  pest or weed control at 62 g/ha: 15%
chamomile; [15]
  pest or weed control at 125 g/ha: 20%
chamomile; Tripleurospermum inodorum, post-emergence, 250 g ai/ha, scale 0 to 100 (0 no effect, 100 complete control), read-out: Plant response rating, Chamomile
  pest or weed control at 250 g/ha: 15%
Wild buckwheat; [16]
  pest or weed control at 31 g/ha: 10%
Wild buckwheat; [17]
  pest or weed control at 62 g/ha: 50%
Wild buckwheat; [18]
  pest or weed control at 125 g/ha: 100%
Wild buckwheat; Fallopia convolvulus, pre-emergence, 250 g ai/ha, scale 0-100, read-out: Plant response rating, Buckwheat, Wild
  pest or weed control at 250 g/ha: 100%
Wild mustard; [19]
  pest or weed control at 31 g/ha: 20%
Wild mustard; [20]
  pest or weed control at 62 g/ha: 55%
Wild mustard; [21]
  pest or weed control at 125 g/ha: 90%
Wild mustard; Brassica, pre-emergence, 250 g ai/ha, scale 0-100, read-out: Plant response rating, Mustard, Wild
  pest or weed control at 250 g/ha: 100%

## Fc1cccc(Oc2ncc(Cl)cn2)c1-n1cc(C(F)F)nn1 [Compound 141, 5-chloro-2-[2-[4-(difluoromethyl)-1H-1,2,3-triazol-1-yl]-3-fluorophenoxy]pyrimidine]
kochia; Bassia scoparia, post-emergence, 16 g ai/ha, scale 0-100, read-out: Plant response rating, Kochia
  pest or weed control at 16 g/ha: 70%
kochia; [1]
  pest or weed control at 31 g/ha: 85%
kochia; [2]
  pest or weed control at 62 g/ha: 100%
kochia; [3]
  pest or weed control at 125 g/ha: 100%
Field poppy; Papaver rhoeas, post-emergence, 16 g ai/ha, scale 0-100, read-out: Plant response rating, Field Poppy
  pest or weed control at 16 g/ha: 40%
Field poppy; [4]
  pest or weed control at 31 g/ha: 95%
Field poppy; [5]
  pest or weed control at 62 g/ha: 90%
Field poppy; [6]
  pest or weed control at 125 g/ha: 85%
Spring barley; Hordeum vulgare, pre-emergence, 16 g ai/ha, scale 0 (no effect) to 100 (complete control), read-out: Plant response rating, Barley, Spring
  plant injury at 16 g/ha: 15%
Spring barley; [7]
  plant injury at 31 g/ha: 20%
Spring barley; [8]
  plant injury at 62 g/ha: 65%
Spring barley; [9]
  plant injury at 125 g/ha: 90%
Winter barley; Hordeum vulgare, pre-emergence, 16 g ai/ha, scale 0 (no effect) to 100 (complete control), read-out: Plant response rating, Barley, Winter
  plant injury at 16 g/ha: 15%
Winter barley; [10]
  plant injury at 31 g/ha: 35%
Winter barley; [11]
  plant injury at 62 g/ha: 65%
Winter barley; [12]
  plant injury at 125 g/ha: 90%
chamomile; Tripleurospermum inodorum, post-emergence, 16 g ai/ha, scale 0-100, read-out: Plant response rating, Chamomile
  pest or weed control at 16 g/ha: 10%
chamomile; [13]
  pest or weed control at 31 g/ha: 20%
chamomile; [14]
  pest or weed control at 62 g/ha: 15%
chamomile; [15]
  pest or weed control at 125 g/ha: 20%
Wild buckwheat; Fallopia convolvulus, pre-emergence, 16 g ai/ha, scale 0 (no effect) to 100 (complete control), read-out: Plant response rating, Buckwheat, Wild
  pest or weed control at 16 g/ha: 100%
Wild buckwheat; [16]
  pest or weed control at 31 g/ha: 100%
Wild buckwheat; [17]
  pest or weed control at 62 g/ha: 100%
Wild buckwheat; [18]
  pest or weed control at 125 g/ha: 100%
Wild mustard; Brassica, pre-emergence, 16 g ai/ha, scale 0 (no effect) to 100 (complete control), read-out: Plant response rating, Mustard, Wild
  pest or weed control at 16 g/ha: 90%
Wild mustard; [19]
  pest or weed control at 31 g/ha: 100%
Wild mustard; [20]
  pest or weed control at 62 g/ha: 100%
Wild mustard; [21]
  pest or weed control at 125 g/ha: 100%

## FCc1cccc(Oc2ncc(Cl)cn2)c1-n1cc(I)cn1 [Compound 245]
kochia; 16 g ai/ha, scale 0-100
  Plant response rating, Kochia: 25
kochia; [22]
  Plant response rating, Kochia: 70
kochia; [23]
  Plant response rating, Kochia: 90
kochia; [24]
  Plant response rating, Kochia: 90
Field poppy; 16 g ai/ha, scale 0-100
  Plant response rating, Field Poppy: 90
Field poppy; [22]
  Plant response rating, Field Poppy: 95
Field poppy; [23]
  Plant response rating, Field Poppy: 80
Field poppy; [24]
  Plant response rating, Field Poppy: 100
Spring barley; [25]
  Plant response rating, Barley, Spring: 0
Spring barley; 31 g ai/ha, scale 0-100
  Plant response rating, Barley, Spring: 5
Spring barley; 62 g ai/ha, scale 0-100
  Plant response rating, Barley, Spring: 15
Spring barley; 125 g ai/ha, scale 0-100
  Plant response rating, Barley, Spring: 35
Winter barley; [25]
  Plant response rating, Barley, Winter: 0
Winter barley; 31 g ai/ha, scale 0-100
  Plant response rating, Barley, Winter: 35
Winter barley; 62 g ai/ha, scale 0-100
  Plant response rating, Barley, Winter: 25
Winter barley; 125 g ai/ha, scale 0-100
  Plant response rating, Barley, Winter: 40
chamomile; 16 g ai/ha, scale 0-100
  Plant response rating, Chamomile: 30
chamomile; [22]
  Plant response rating, Chamomile: 30
chamomile; [23]
  Plant response rating, Chamomile: 45
chamomile; [24]
  Plant response rating, Chamomile: 40
Wild buckwheat; [25]
  Plant response rating, Buckwheat, Wild: 25
Wild buckwheat; 31 g ai/ha, scale 0-100
  Plant response rating, Buckwheat, Wild: 0
Wild buckwheat; 62 g ai/ha, scale 0-100
  Plant response rating, Buckwheat, Wild: 25
Wild buckwheat; 125 g ai/ha, scale 0-100
  Plant response rating, Buckwheat, Wild: 35
Wild mustard; [25]
  Plant response rating, Mustard, Wild: 80
Wild mustard; 31 g ai/ha, scale 0-100
  Plant response rating, Mustard, Wild: 80
Wild mustard; 62 g ai/ha, scale 0-100
  Plant response rating, Mustard, Wild: 85
Wild mustard; 125 g ai/ha, scale 0-100
  Plant response rating, Mustard, Wild: 100
